Source: patent US11642335B2, “Chemical synthesis of clopidogrel active metabolites and disulfide conjugate prodrugs” (Board of Regents, The University of Texas System, priority 2019, dated 2023)
Entries after “also recorded” stand apart in the source; their conditions may differ.

How the values were obtained:
P2Y12R = P2Y12R (Homo sapiens, UniProt Q9H244); settings: biosynthesized H2, relative to H4; cited from earlier work
[1] = patients treated with CPG; cited from earlier work
[2] = system: FeCl3 carotid artery injury-induced thrombosis; test: FeCl3 carotid artery injury-induced thrombosis mouse model (in vivo antiplatelet test); settings: for occlusion time of thrombosis: tail vein administration of 1 mg/kg, compared to vehicle (negative control) and CPG (positive control), FIG. 14, 1 mg/kg
Excerpt: Referring now to FIGS. 14-18, In vivo antiplatelet test of synthetic H3 and H4 in a FeCl3 carotid artery injury-induced thrombosis mouse model.

antiplatelet activity = settings: cited from earlier work

Sequence of P2Y12R (Q9H244 whole entry): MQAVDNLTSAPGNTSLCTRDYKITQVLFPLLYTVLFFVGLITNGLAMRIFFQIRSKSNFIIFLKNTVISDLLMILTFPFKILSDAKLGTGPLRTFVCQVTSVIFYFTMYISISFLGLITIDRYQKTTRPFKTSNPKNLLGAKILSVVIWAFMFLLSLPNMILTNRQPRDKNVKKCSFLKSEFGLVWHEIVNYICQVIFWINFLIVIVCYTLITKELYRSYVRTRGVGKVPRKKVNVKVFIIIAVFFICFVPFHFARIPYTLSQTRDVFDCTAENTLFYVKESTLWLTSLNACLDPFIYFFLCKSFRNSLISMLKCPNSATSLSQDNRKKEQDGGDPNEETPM

## COC(=O)[C@H](c1ccccc1Cl)N1CC[C@@H](S)/C(=C\C(=O)O)C1 [H2]
P2Y12R
  potency against P2Y12R in vitro: similarly potent as H4
[1]
  detection as circulating metabolite in patients' plasma: not detected

## COC(=O)[C@H](c1ccccc1Cl)N1CC[C@@H](S)/C(=C\C(=O)O)C1 [H3]
[2]
  occlusion time of thrombosis: ineffective
[1]
  detection as circulating metabolite in patients' plasma: detected as circulating metabolites

## COC(=O)[C@H](c1ccccc1Cl)N1CC[C@@H](S)/C(=C\C(=O)O)C1 [H4]
[2]; synthetic metabolite, mice
  stereospecific potency in vivo: stereospecific potency in mice; also recorded: stereospecific potency in vivo
[2]
  occlusion time of thrombosis: significantly prolong the occlusion time of thrombosis
Antiplatelet activity
  activity in in vitro pharmacological studies (antiplatelet): active
[1]
  detection as circulating metabolite in patients' plasma: detected as circulating metabolites
